According to patent US20230139171A1 (SITA Information Networking Computing UK Limited, priority 2019, published 2023):
pIC50: −log10 of the molar value.

Key:
Format in all cases: cell-based
human TLR7 = target: T1, human TLR7 (Homo sapiens, UniProt Q9NYK1); experiment: TLR7 inhibition reporter assay (HEK-Blue cells, SEAP reporter, gardiquimod stimulation); settings: HEK-Blue cells overexpressing human TLR7, SEAP reporter, gardiquimod 7.5 μM; read-out: TLR7 IC50
T1 construct: host or cells: HEK-Blue cells
T1 sequence (Q9NYK1 27-1049): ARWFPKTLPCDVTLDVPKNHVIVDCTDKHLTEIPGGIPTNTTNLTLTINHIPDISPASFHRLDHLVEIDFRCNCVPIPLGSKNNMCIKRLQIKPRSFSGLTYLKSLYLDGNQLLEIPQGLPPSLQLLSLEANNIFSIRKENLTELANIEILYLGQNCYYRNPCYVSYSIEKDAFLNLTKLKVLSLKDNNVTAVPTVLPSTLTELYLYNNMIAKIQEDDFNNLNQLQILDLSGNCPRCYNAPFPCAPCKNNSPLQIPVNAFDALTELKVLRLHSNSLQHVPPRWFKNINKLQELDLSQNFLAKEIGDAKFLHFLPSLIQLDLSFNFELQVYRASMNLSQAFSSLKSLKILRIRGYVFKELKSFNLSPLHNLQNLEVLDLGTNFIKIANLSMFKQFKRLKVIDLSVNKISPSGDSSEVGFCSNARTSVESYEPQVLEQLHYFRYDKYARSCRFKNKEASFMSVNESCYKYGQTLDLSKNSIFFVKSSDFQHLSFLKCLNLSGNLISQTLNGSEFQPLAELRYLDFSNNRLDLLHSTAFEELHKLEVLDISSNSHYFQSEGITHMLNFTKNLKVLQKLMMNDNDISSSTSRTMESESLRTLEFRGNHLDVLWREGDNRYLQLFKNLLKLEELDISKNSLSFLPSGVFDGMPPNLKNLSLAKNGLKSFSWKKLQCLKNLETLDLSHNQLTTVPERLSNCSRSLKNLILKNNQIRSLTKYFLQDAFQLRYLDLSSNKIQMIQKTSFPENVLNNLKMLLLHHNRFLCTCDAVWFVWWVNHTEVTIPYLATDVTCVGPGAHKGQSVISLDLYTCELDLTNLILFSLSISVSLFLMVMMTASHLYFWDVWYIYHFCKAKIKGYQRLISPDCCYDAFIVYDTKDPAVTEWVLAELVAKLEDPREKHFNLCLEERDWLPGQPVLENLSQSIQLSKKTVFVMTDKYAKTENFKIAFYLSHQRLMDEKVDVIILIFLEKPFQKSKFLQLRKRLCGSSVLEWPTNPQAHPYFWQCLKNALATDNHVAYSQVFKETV
Outline: (§1)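 HEK-Blue cells overexpressing human TLR7, TLR8 or TLR9 carry a SEAP reporter driven by NF-κB/AP-1 sites. Compounds (0.05 nM–50 μM) were preincubated 30 min at room temperature, then cells were stimulated with gardiquimod 7.5 μM (TLR7), R848 15.9 μM (TLR8) or ODN2006 5 nM (TLR9) for 22 h at 37 °C.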

human TLR9 = target: T2, human TLR9 (Homo sapiens, UniProt Q9NR96); experiment: TLR9 inhibition reporter assay (HEK-Blue cells, SEAP reporter, ODN2006 stimulation); settings: HEK-Blue cells overexpressing human TLR9, SEAP reporter, ODN2006 5 nM
T2 construct: host or cells: HEK-Blue cells
T2 sequence (Q9NR96 26-1032): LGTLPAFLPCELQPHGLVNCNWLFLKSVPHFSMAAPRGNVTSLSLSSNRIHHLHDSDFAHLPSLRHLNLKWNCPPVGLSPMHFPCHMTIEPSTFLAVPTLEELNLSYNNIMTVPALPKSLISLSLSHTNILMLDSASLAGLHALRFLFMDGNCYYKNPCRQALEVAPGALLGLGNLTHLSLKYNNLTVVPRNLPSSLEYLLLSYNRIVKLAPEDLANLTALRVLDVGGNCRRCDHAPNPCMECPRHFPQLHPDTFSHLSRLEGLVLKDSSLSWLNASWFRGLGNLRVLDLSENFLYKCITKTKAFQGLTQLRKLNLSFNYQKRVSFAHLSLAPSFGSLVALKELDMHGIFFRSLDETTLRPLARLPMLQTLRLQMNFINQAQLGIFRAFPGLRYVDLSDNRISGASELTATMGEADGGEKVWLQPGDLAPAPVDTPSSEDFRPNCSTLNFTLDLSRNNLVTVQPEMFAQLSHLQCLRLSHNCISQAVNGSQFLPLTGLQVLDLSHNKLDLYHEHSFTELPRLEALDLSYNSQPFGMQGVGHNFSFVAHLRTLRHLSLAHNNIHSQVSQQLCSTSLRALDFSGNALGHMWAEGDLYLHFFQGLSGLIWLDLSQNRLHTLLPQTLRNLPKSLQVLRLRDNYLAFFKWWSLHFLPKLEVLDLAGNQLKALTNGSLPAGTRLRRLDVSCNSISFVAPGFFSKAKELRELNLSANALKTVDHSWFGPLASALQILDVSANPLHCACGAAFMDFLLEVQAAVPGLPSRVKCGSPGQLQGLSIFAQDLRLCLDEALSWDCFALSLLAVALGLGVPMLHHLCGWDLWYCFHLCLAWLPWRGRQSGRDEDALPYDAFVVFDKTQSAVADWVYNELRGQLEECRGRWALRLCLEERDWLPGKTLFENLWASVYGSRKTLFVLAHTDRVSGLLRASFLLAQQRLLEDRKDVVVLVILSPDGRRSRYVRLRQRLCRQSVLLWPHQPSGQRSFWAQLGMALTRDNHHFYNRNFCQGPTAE
Outline: as §1

human TLR8 = target: T3, human TLR8 (Homo sapiens, UniProt Q9NR97); experiment: TLR8 inhibition reporter assay (HEK-Blue cells, SEAP reporter, R848 stimulation); settings: HEK-Blue cells overexpressing human TLR8, SEAP reporter, R848 15.9 μM; read-out: TLR8 IC50
T3 construct: host or cells: HEK-Blue cells
T3 sequence (Q9NR97 27-1041): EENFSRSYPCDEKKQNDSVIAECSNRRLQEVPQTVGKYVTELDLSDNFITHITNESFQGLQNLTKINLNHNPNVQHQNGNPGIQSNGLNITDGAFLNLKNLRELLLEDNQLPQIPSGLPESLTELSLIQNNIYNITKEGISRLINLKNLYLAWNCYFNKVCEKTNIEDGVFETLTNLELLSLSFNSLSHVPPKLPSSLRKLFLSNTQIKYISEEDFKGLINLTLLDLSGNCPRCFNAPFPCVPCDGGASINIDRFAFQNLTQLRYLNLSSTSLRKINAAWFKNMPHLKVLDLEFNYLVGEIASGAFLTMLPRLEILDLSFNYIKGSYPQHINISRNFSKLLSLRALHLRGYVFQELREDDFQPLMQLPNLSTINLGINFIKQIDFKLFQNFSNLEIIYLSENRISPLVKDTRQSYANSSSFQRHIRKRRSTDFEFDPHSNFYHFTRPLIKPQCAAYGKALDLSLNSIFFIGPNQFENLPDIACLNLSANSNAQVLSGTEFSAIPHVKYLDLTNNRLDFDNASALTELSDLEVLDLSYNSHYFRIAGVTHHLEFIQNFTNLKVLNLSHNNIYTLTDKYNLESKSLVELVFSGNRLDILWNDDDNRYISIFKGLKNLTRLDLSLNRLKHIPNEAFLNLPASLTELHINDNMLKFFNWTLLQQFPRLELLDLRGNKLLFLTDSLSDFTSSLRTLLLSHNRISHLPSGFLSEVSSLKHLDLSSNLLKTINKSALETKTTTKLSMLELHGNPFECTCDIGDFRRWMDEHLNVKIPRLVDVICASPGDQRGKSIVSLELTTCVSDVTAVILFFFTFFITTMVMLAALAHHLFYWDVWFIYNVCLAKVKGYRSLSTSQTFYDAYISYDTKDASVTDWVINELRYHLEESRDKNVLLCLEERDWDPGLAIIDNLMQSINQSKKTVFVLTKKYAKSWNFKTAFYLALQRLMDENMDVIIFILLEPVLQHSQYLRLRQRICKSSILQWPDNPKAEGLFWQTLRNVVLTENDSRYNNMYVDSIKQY
Outline: as §1

Row | Structure (SMILES) | pIC50 (human TLR7) | pIC50 (human TLR9) | pIC50 (human TLR8)
1 | COc1cc(-c2[nH]c3sc(C4CCN(CC5(C)COC5)CC4)nc3c2C(C)C)cn2ncnc12 [Example 14, 6-isopropyl-5-(8-methoxy-[1,2,4]triazolo[1,5-a]pyridin-6-yl)-2-(1-((3-methyloxetan-3-yl)methyl)piperidin-4-yl)-4H-pyrrolo[3,2-d]thiazole] | 8.72 | 5.42 | 9.03
2 | COc1cc(-c2[nH]c3sc(C4CCN(CCS(C)(=O)=O)CC4)nc3c2C(C)C)cn2ncnc12 [Example 16, 6-isopropyl-5-(8-methoxy-[1,2,4]triazolo[1,5-a]pyridin-6-yl)-2-(1-(2-(methylsulfonyl)ethyl)piperidin-4-yl)-4H-pyrrolo[3,2-d]thiazole] | 8.51 | 4.36 | 8.56
3 | Cc1cc(-c2[nH]c3sc(C4CCN(C(=O)CN(C)C)CC4)nc3c2C(C)C)cn2ncnc12 [Example 19, 2-(dimethylamino)-1-(4-(6-isopropyl-5-(8-methyl-[1,2,4]triazolo[1,5-a]pyridin-6-yl)-4H-pyrrolo[3,2-d]thiazol-2-yl)piperidin-1-yl)ethan-1-one] | 8.85 | 5.23 | 7.92
4 | Cc1cc(-c2[nH]c3sc(C4CCN(CC5(C)COC5)CC4)nc3c2C(C)C)cn2ncnc12 [Example 23, 6-isopropyl-5-(8-methyl-[1,2,4]triazolo[1,5-a]pyridin-6-yl)-2-(1-((3-methyloxetan-3-yl)methyl)piperidin-4-yl)-4H-pyrrolo[3,2-d]thiazole] | 8.90 | 5.32 | 9.00
5 | Cc1cc(-c2[nH]c3sc(C4CCN(CC(=O)N(C)C)CC4)nc3c2C(C)C)cc(C)n1 [Example 24, 2-(4-(5-(2,6-dimethylpyridin-4-yl)-6-isopropyl-4H-pyrrolo[3,2-d]thiazol-2-yl)piperidin-1-yl)-N,N-dimethylacetamide] | 7.36 | 6.10 | 7.90

The remaining lines, values ahead:

Row | pIC50 (human TLR7) | pIC50 (human TLR9) | pIC50 (human TLR8) | Structure (SMILES)
6 | 8.30 | 5.48 | 8.69 | COc1cc(-c2[nH]c3sc(C4CCN(CC(C)(C)C)CC4)nc3c2C(C)C)cn2ncnc12 [Example 13, 6-isopropyl-5-(8-methoxy-[1,2,4]triazolo[1,5-a]pyridin-6-yl)-2-(1-neopentylpiperidin-4-yl)-4H-pyrrolo[3,2-d]thiazole]
7 | 8.38 | 5.11 | 8.50 | COc1cc(-c2[nH]c3sc(C4CCN(CC(C)(C)O)CC4)nc3c2C(C)C)cn2ncnc12 [Example 15, 1-(4-(6-isopropyl-5-(8-methoxy-[1,2,4]triazolo[1,5-a]pyridin-6-yl)-4H-pyrrolo[3,2-d]thiazol-2-yl)piperidin-1-yl)-2-methylpropan-2-ol]
8 | 8.09 | 5.46 | 8.08 | Cc1cc(-c2[nH]c3sc(C4CCN(CC(=O)N(C)C)CC4)nc3c2C(C)C)cn2ncnc12 [Example 17, 2-(4-(6-isopropyl-5-(8-methyl-[1,2,4]triazolo[1,5-a]pyridin-6-yl)-4H-pyrrolo[3,2-d]thiazol-2-yl)piperidin-1-yl)-N,N-dimethylacetamide]
9 | 8.24 | 5.43 | 8.59 | Cc1cc(-c2[nH]c3sc(C4CCN(CC(C)(C)O)CC4)nc3c2C(C)C)cn2ncnc12 [Example 18, 1-(4-(6-isopropyl-5-(8-methyl-[1,2,4]triazolo[1,5-a]pyridin-6-yl)-4H-pyrrolo[3,2-d]thiazol-2-yl)piperidin-1-yl)-2-methylpropan-2-ol]
10 | 8.43 | 4.79 | 8.09 | Cc1cc(-c2[nH]c3sc(C4CCN(C5COC5)CC4)nc3c2C(C)C)cn2ncnc12 [Example 20, 6-isopropyl-5-(8-methyl-[1,2,4]triazolo[1,5-a]pyridin-6-yl)-2-(1-(oxetan-3-yl)piperidin-4-yl)-4H-pyrrolo[3,2-d]thiazole]
11 | 8.16 | < 4.30 | 7.41 | Cc1cc(-c2[nH]c3sc(C4CCN(C(C)C)CC4)nc3c2C(C)C)cn2ncnc12 [Example 21, 6-isopropyl-2-(1-isopropylpiperidin-4-yl)-5-(8-methyl-[1,2,4]triazolo[1,5-a]pyridin-6-yl)-4H-pyrrolo[3,2-d]thiazole]
12 | 8.91 | 5.31 | 9.05 | Cc1cc(-c2[nH]c3sc(C4CCN(C5CCOCC5)CC4)nc3c2C(C)C)cn2ncnc12 [Example 22, 6-isopropyl-5-(8-methyl-[1,2,4]triazolo[1,5-a]pyridin-6-yl)-2-(1-(tetrahydro-2H-pyran-4-yl)piperidin-4-yl)-4H-pyrrolo[3,2-d]thiazole]
13 | 7.59 | 6.35 | 7.99 | Cc1cc(-c2[nH]c3sc(C4CCN(C(C)C)CC4)nc3c2C(C)C)cc(C)n1 [Example 25, 5-(2,6-dimethylpyridin-4-yl)-6-isopropyl-2-(1-isopropylpiperidin-4-yl)-4H-pyrrolo[3,2-d]thiazole]
